{
  "source": "ChEMBL document CHEMBL3046739",
  "about": "“Effects of imidacloprid on transmission of tomato spotted wilt tospovirus to pepper, tomato and tobacco by Frankliniella fusca Hinds (Thysanoptera: Thripidae)” (2001)",
  "key": {"Frankliniella fusca [1]": {"test_system": "Frankliniella fusca", "experiment": "Insecticidal activity against Frankliniella fusca assessed as effect on probing/feeding bout on pepper plants at 7.1 g a.i./1000 plants measured as number of potential drops by electronic penetration graph analysis (reference value: 0.03 +/- 0.01 /hr)", "assay_type": "functional"}, "Frankliniella fusca [2]": {"test_system": "Frankliniella fusca", "experiment": "Insecticidal activity against Frankliniella fusca assessed as tomato spotted wilt tospovirus transmission in compound pre-treated tobacco plant at 9.9 g a.i./1000 plants 60 days prior to 48 hr insect-infestation followed by foliar application at 7.1 g a.i./1000 plants measured after 21 days in green house conditions (reference value: 82.5 +/- 0.05%)", "assay_type": "functional"}, "Frankliniella fusca [3]": {"test_system": "Frankliniella fusca", "experiment": "Insecticidal activity against Frankliniella fusca assessed as effect on probing/feeding bout on mustard plants at 14.4 g a.i./1000 plants measured as duration of potential drops by electronic penetration graph analysis (reference value: 0.06 +/- 0.03 min)", "assay_type": "functional"}, "Frankliniella fusca [4]": {"test_system": "Frankliniella fusca", "experiment": "(§1) Insecticidal activity against Frankliniella fusca assessed as reduction in tomato spotted wilt tospovirus transmission in compound pre-treated tomato plant at 9.9 g a.i./1000 plants 60 days prior to 48 hr insect-infestation followed by foliar application at 7.1 g a.i./1000 plants measured after 21 days in green house conditions", "assay_type": "functional", "design": "scale not given: the % may be the effect or the level left"}, "Frankliniella fusca [5]": {"test_system": "Frankliniella fusca", "experiment": "Insecticidal activity against Frankliniella fusca immature thrips isolated from infected tobacco plants assessed reduction in tomato spotted wilt tospovirus transmission on petunia leaf by DAS-ELISA", "assay_type": "functional", "design": "scale not given: the % may be the effect or the level left"}, "Frankliniella fusca [6]": {"test_system": "Frankliniella fusca", "experiment": "Insecticidal activity against Frankliniella fusca assessed as effect on probing/feeding bout on mustard plants at 7.1 g a.i./1000 plants measured as duration of potential drops by electronic penetration graph analysis (reference value: 1.28 +/- 0.15 min)", "assay_type": "functional"}, "Frankliniella fusca [7]": {"test_system": "Frankliniella fusca", "experiment": "as §1, with “pretreated pepper” for “pre-treated tomato”", "assay_type": "functional", "design": "scale not given: the % may be the effect or the level left"}, "Frankliniella fusca [8]": {"test_system": "Frankliniella fusca", "experiment": "Insecticidal activity against Frankliniella fusca assessed as effect on probing/feeding bout on pepper plants at 14.4 g a.i./1000 plants measured as duration of potential drops by electronic penetration graph analysis (reference value: 0.04 +/- 0.02 min)", "assay_type": "functional"}, "Frankliniella fusca [9]": {"test_system": "Frankliniella fusca", "experiment": "Insecticidal activity against Frankliniella fusca assessed as effect on probing/feeding bout on mustard plants at 14.4 g a.i./1000 plants measured as number of potential drops by electronic penetration graph analysis (reference value: 0.2 +/- 0.09 /hr)", "assay_type": "functional"}, "Frankliniella fusca [10]": {"test_system": "Frankliniella fusca", "experiment": "as §1, with “pretreated” for “pre-treated”, “11.3” for “9.9”, “8” for “60”, “field” for “green house”", "assay_type": "functional", "design": "scale not given: the % may be the effect or the level left"}, "Frankliniella fusca [11]": {"test_system": "Frankliniella fusca", "experiment": "Insecticidal activity against Frankliniella fusca assessed as effect on probing/feeding bout on pepper plants at 7.1 g a.i./1000 plants measured as duration of potential drops by electronic penetration graph analysis (reference value: 0.01 +/- 0.01 min)", "assay_type": "functional"}, "Frankliniella fusca [12]": {"test_system": "Frankliniella fusca", "experiment": "Insecticidal activity against Frankliniella fusca assessed as effect on probing/feeding bout on pepper plants at 14.4 g a.i./1000 plants measured as number of potential drops by electronic penetration graph analysis (reference value: 0.28 +/- 0.03 /hr)", "assay_type": "functional"}, "Frankliniella fusca [13]": {"test_system": "Frankliniella fusca", "experiment": "Insecticidal activity against Frankliniella fusca assessed as reduction in number of thrips isolated per compound pre-treated tobacco plant infected with tomato spotted wilt tospovirus at 9.9 g a.i./1000 plants in green house conditions relative to control", "assay_type": "functional, organism-based"}, "Frankliniella fusca [14]": {"test_system": "Frankliniella fusca", "experiment": "Insecticidal activity against Frankliniella fusca assessed as effect on probing/feeding bout on mustard plants at 7.1 g a.i./1000 plants measured as number of potential drops by electronic penetration graph analysis (reference value: 0.7 +/- 0.11 /hr)", "assay_type": "functional"}, "Frankliniella fusca [15]": {"test_system": "Frankliniella fusca", "experiment": "as §1, with “pre-treated pepper” for “pre-treated tomato”, “at 11.3” for “at 9.9”, “plants 8” for “plants 60”, “in field” for “in green house”", "assay_type": "functional", "design": "scale not given: the % may be the effect or the level left"}},
  "note": "Calls of active or inactive are those of the source. The rule behind the calls is not given here.",
  "data": [
    {"molecule": "O=[N+]([O-])/N=C1\\NCCN1Cc1ccc(Cl)nc1", "note": "[IMIDACLOPRID]", "values": [
      {"measurement": "Activity", "setting": "Frankliniella fusca [1]", "value": 1.53, "unit": "h⁻¹"},
      {"measurement": "Activity", "setting": "Frankliniella fusca [2]", "value": 11.1, "unit": "%"},
      {"measurement": "Time", "setting": "Frankliniella fusca [3]", "value": 0.79, "unit": "min"},
      {"measurement": "Activity", "setting": "Frankliniella fusca [4]", "value": 82, "unit": "%"},
      {"measurement": "Activity", "setting": "Frankliniella fusca [5]", "value": 6.4, "unit": "%"},
      {"measurement": "Time", "setting": "Frankliniella fusca [6]", "value": 1.41, "unit": "min"},
      {"measurement": "Activity", "setting": "Frankliniella fusca [7]", "value": 74, "unit": "%"},
      {"measurement": "Time", "setting": "Frankliniella fusca [8]", "value": 0.52, "unit": "min"},
      {"measurement": "Activity", "setting": "Frankliniella fusca [9]", "value": 1.53, "unit": "h⁻¹"},
      {"measurement": "Activity", "setting": "Frankliniella fusca [10]", "value": 87, "unit": "%"},
      {"measurement": "Time", "setting": "Frankliniella fusca [11]", "value": 0.39, "unit": "min"},
      {"measurement": "Activity", "setting": "Frankliniella fusca [12]", "value": 1.84, "unit": "h⁻¹"},
      {"measurement": "Activity", "setting": "Frankliniella fusca [13]", "value": "Active"},
      {"measurement": "Activity", "setting": "Frankliniella fusca [14]", "value": 2.12, "unit": "h⁻¹"},
      {"measurement": "Activity", "setting": "Frankliniella fusca [15]", "value": 73, "unit": "%"}
    ]}
  ]
}
